Starred links: 1 amine or outer side, 2 acyl side, 3 side chain; linkers in the order of their positions; H or OH if unused. Non-standard residues stand in square brackets, D forms with d. Residues, ends and D or L forms follow the SMILES beside them. Groups on a side chain read outwards from the residue. *: point of attachment. γGlu = O=C(O)[C@H](CCC(=O)[*:2])N[*:1]; Palmitoyl = CCCCCCCCCCCCCCCC(=O)*; Nle = CCCC[C@H](N)C(=O)O; AEEA = NCCOCCOCC(=O)O; Aib = CC(C)(N)C(=O)O
Key:
[1] = target: T1, Relaxin receptor 1 (Homo sapiens, UniProt Q9HBX9); experiment: Agonist activity at human RXFP1 expressed in human OVCAR-5 cells assessed as intracellular cAMP accumulation incubated for 30 mins by HTRF assay; type: functional, cell-based
T1 sequence (Q9HBX9 whole entry): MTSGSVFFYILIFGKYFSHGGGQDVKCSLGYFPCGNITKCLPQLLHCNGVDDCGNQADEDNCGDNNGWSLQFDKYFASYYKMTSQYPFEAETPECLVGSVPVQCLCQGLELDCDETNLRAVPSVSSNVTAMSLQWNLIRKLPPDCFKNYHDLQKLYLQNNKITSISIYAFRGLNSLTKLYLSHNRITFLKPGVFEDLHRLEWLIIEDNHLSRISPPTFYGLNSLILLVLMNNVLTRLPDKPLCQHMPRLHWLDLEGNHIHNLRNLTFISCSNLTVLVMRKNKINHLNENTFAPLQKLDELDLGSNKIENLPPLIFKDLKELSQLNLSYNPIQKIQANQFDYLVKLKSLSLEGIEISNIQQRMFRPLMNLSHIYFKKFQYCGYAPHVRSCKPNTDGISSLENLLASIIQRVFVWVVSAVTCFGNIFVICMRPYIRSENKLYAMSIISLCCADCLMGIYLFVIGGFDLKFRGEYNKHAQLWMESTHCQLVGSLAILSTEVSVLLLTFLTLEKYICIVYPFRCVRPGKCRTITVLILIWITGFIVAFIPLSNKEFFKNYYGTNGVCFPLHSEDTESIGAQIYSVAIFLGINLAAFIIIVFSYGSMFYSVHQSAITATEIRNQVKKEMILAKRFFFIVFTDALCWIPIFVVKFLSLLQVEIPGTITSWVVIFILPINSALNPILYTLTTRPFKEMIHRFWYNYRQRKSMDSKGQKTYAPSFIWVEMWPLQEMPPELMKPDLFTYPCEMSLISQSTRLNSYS

[2] = target: T2, Relaxin receptor 1 (Homo sapiens) (UniProt Q9HBX9); experiment: Agonist activity at human RXFP1 expressed in human OVCAR-5 cells assessed as intracellular cAMP accumulation by measuring maximal efficacy incubated for 30 mins by HTRF assay relative to control; type: functional, cell-based; settings: filed as agonist
T2 sequence (whole entry): T1 sequence (Q9HBX9 whole entry)

[3] = target: T1, Relaxin receptor 1; experiment: Agonist activity at human RXFP1 expressed in 2%HSA treated human OVCAR-5 cells assessed as intracellular cAMP accumulation incubated for 30 mins with 2% HSA pretreated compound by HTRF assay; type: functional, cell-based
[4] = target: T2, Relaxin receptor 1 (Homo sapiens); experiment: Agonist activity at human RXFP1 expressed in 2%HSA treated human OVCAR-5 cells assessed as intracellular cAMP accumulation by measuring maximal efficacy incubated for 30 mins with 2% HSA pretreated compound by HTRF assay relative to control; type: functional, cell-based; settings: filed as agonist
[5] = Half-life in male Sprague-Dawley rat at 1 mg/kg, iv measured after 198 hrs by LC-HRMS analysis; type: ADME, organism-based; settings: in vivo
[6] = Drug metabolism in male Sprague-Dawley rat assessed as fatty acid chain oxidation mediated M+16 metabolite formation by measuring metabolite to parent compound AUC ratio at 3 mg/kg, sc measured after 198 hrs by LC-HRMS analysis; type: ADME, organism-based; settings: in vivo
[7] = Half-life in male Beagle dog at 1 mg/kg, iv measured after 198 hrs by LC-HRMS analysis; type: ADME, organism-based, Canis lupus familiaris; settings: in vivo
[8] = Drug metabolism in male Beagle dog assessed as fatty acid chain oxidation mediated M+16 metabolite formation by measuring metabolite to parent compound AUC ratio at 1 mg/kg, iv measured after 198 hrs by LC-HRMS analysis; type: ADME, organism-based, Canis lupus familiaris; settings: in vivo
[9] = Half-life in female Gottingen pig at 1 mg/kg, iv measured after 198 hrs by LC-HRMS analysis; type: ADME, organism-based, Sus scrofa; settings: in vivo
[10] = Drug metabolism in female Gottingen pig assessed as fatty acid chain oxidation mediated M+16 metabolite formation by measuring metabolite to parent compound AUC ratio at 1 mg/kg, iv measured after 198 hrs by LC-HRMS analysis; type: ADME, organism-based, Sus scrofa; settings: in vivo
[11] = Induction of mast cell degranulation in human LAD2 cells assessed as beta-hexosaminidase release by measuring 4-methylumbelliferyl N-acetyl-beta-D-glucosaminide hydrolysis incubated for 30 mins by plate reader analysis; type: toxicity, cell-based; settings: probe 4-methylumbelliferyl N-acetyl-beta-D-glucosaminide
[12] = Induction of mast cell degranulation in human LAD2 cells assessed as beta-hexosaminidase release by measuring maximal efficacy of 4-methylumbelliferyl N-acetyl-beta-D-glucosaminide hydrolysis at 33 uM incubated for 30 mins by plate reader analysis relative to control; type: toxicity, cell-based; settings: probe 4-methylumbelliferyl N-acetyl-beta-D-glucosaminide
[13] = Induction of mast cell degranulation in human LAD2 cells assessed as beta-hexosaminidase release by measuring maximal efficacy of 4-methylumbelliferyl N-acetyl-beta-D-glucosaminide hydrolysis at 10 uM incubated for 30 mins by plate reader analysis relative to control; type: toxicity, cell-based; settings: probe 4-methylumbelliferyl N-acetyl-beta-D-glucosaminide

Row | EC50 [1] [nM] | Emax [2] [%] | EC50 [3] [nM] | Emax [4] [%] | half-life [5] [h] | Ratio AUC [6] | half-life [7] [h] | Ratio AUC [8] | half-life [9] [h] | Ratio AUC [10] | SMILES | EC50 at 30 min [11] [nM] | Emax at 0.5 h, 33 µM [12] [%] | Emax at 0.5 h, 10 µM [13] [%]
1 | 1 | 80 | 87 | 96 | 5.7 | 0.025 | 4.4 | 0.99 | 12.9 | 0.7 | CCCCCCCCCCCCCCCC(=O)N[C@@H](CCC(=O)N[C@@H](CCC(=O)N[C@@H](CCC(=O)NCCOCCOCC(=O)NCCOCCOCC(=O)NCCOCCOCC(=O)NCCCC[C@H](NC(=O)[C@H](CCCCNC(C)=O)NC(=O)[C@H](CCCCN)NC(=O)[C@H](CCCNC(=N)N)NC(=O)C(C)(C)NC(=O)[C@H](CO)NC(=O)[C@H](Cc1c[nH]c2ccccc12)NC(=O)[C@@H](NC(=O)[C@H](CO)NC(=O)[C@H](CCCC)NC(=O)CNC(=O)[C@H](CCC(=O)O)NC(=O)C(C)(C)NC(=O)C(C)(C)NC(=O)[C@@H](NC(=O)[C@H](CCCCNC(C)=O)NC(=O)[C@H](C)NC(=O)[C@H](CCCNC(=N)N)NC(=O)[C@@H](NC(=O)[C@H](CCCCN)NC(=O)[C@H](CCC(=O)O)NC(=O)[C@H](CCCNC(=N)N)NC(=O)CNC(=O)[C@H](CCC(=O)O)NC(=O)[C@H](CC(C)C)NC(C)=O)C(C)C)[C@@H](C)CC)[C@@H](C)O)C(N)=O)C(=O)O)C(=O)O)C(=O)O (Ac-LEGREKVRAK(Ac)I[Aib][Aib]EG[Nle]STWS[Aib]RKK(Ac)K([AEEA-AEEA-AEEA-γGlu-γGlu-γGlu-Palmitoyl])-NH2) | 3900 | 67.2 | 
2 |  |  |  |  |  |  |  |  |  |  | CC[C@H](C)[C@H](NC(=O)[C@H](Cc1ccccc1)NC(=O)[C@H](CCC(=O)O)NC(=O)[C@H](CCCCN)NC(=O)[C@H](C)NC(=O)[C@H](C)NC(=O)[C@H](CCC(N)=O)NC(=O)CNC(=O)[C@H](CCC(=O)O)NC(=O)[C@H](CC(C)C)NC(=O)[C@H](Cc1ccc(O)cc1)NC(=O)[C@H](CO)NC(=O)[C@H](CO)NC(=O)[C@@H](NC(=O)[C@H](CC(=O)O)NC(=O)[C@H](CO)NC(=O)[C@@H](NC(=O)[C@H](Cc1ccccc1)NC(=O)[C@@H](NC(=O)CNC(=O)[C@H](CCC(=O)O)NC(=O)[C@H](C)NC(=O)[C@@H](N)Cc1c[nH]cn1)[C@@H](C)O)[C@@H](C)O)C(C)C)C(=O)N[C@@H](C)C(=O)N[C@@H](Cc1c[nH]c2ccccc12)C(=O)N[C@@H](CC(C)C)C(=O)N[C@H](C(=O)N[C@@H](CCCCN)C(=O)NCC(=O)N[C@@H](CCCNC(=N)N)C(N)=O)C(C)C | […] |  | 2.5
3 | 6.2 | 78 | 132 | 73 |  |  |  |  |  |  | CCCCCCCCCCCCCCCC(=O)N[C@@H](CCC(=O)N[C@@H](CCC(=O)N[C@@H](CCC(=O)NC(=O)CCOCCOCCOCCOCCOCCOCCOCCOCCOCCOCCOCCOCCNCCCC[C@H](NC(=O)[C@H](C)NC(=O)[C@H](CCCNC(=N)N)NC(=O)[C@@H](NC(=O)[C@H](CCCCN)NC(=O)[C@H](CCC(=O)O)NC(=O)[C@H](CCCNC(=N)N)NC(=O)CNC(=O)[C@H](CCC(=O)O)NC(=O)[C@H](CC(C)C)NC(C)=O)C(C)C)C(=O)N[C@H](C(=O)NC(C)(C)C(=O)NC(C)(C)C(=O)N[C@@H](CCC(=O)O)C(=O)NCC(=O)N[C@@H](CCCC)C(=O)N[C@@H](CO)C(=O)N[C@H](C(=O)N[C@@H](Cc1c[nH]c2ccccc12)C(=O)N[C@@H](CO)C(=O)NC(C)(C)C(=O)N[C@@H](CCCNC(=N)N)C(=O)N[C@@H](CCCCN)C(=O)N[C@@H](CCCCNC(C)=O)C(N)=O)[C@@H](C)O)[C@@H](C)CC)C(=O)O)C(=O)O)C(=O)O | 2420 |  | 59.7

— ChEMBL document CHEMBL6096738, “Optimization of Single Relaxin B-Chain Peptide Leads to the Identification of R2R01, a Potent, Long-Acting RXFP1 Agonist for Cardiovascular and Renal Diseases” (J Med Chem, 2025)
